Where two headings read alike, the source gives them in different places.
How the values were obtained:
[1] = target: KRAS-WT (Homo sapiens, UniProt P01116); experiment: SOS-catalyzed nucleotide exchange assay (Procedure A, TR-FRET), KRAS-WT; format: biochemical
Method in brief: (§1)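 TR-FRET 520/495 nm ratio read after SOS-driven exchange of Bodipy-GDP for unlabeled GTP (3 mM) on biotinylated RAS bound to Tb-streptavidin. There was a 60 min compound preincubation, RT. Final RAS/SOS and reaction times: G12C 3 nM/40 nM; WT 1 nM/40 nM; NRAS 1.25 nM/40 nM, each 60 min. G12V was 1.25 nM/160 nM, 90 min.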

[2] = target: KRAS-G12D (Homo sapiens, UniProt P01116, G12D); experiment: SOS-catalyzed nucleotide exchange assay (Procedure A, TR-FRET), KRAS-G12D; format: biochemical
Sequence of KRAS-G12D (P01116 with tags, fused parts or gaps isoform P01116-2 G12D): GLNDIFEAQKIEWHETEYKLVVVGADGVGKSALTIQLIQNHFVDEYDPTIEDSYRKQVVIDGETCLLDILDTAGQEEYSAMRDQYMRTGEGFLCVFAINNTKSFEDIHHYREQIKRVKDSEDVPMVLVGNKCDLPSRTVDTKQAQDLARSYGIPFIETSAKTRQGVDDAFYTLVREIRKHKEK
Method in brief: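 Signal ratio (520/495 nm, excitation 340 nm) reports Bodipy-GDP retention on biotinylated RAS after SOS-catalyzed exchange with 3 mM GTP. SOS was 40 nM, except 160 nM for G12V. Room-temperature exchange lasted 60 min (90 min for G12V), following a 60 min compound preincubation.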

[3] = tested on: AsPC-1 cells; experiment: Cellular phospho-ERK assay, AsPC-1 cells (homozygous KRAS-G12D); format: cell-based; details: read-out: AsPC1 pERK IC50
Method in brief: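 ERK phosphorylation relative to total ERK is the endpoint, detected by AlphaScreen-based SureFire multiplex following a 2-hour treatment at 37 °C. Compounds are titrated 1:3 over ten points from 30 μM.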

[4] = target: KRAS-G12V (Homo sapiens, UniProt P01116, G12V); experiment: SOS-catalyzed nucleotide exchange assay (Procedure A, TR-FRET), KRAS-G12V; format: biochemical
Sequence of KRAS-G12V (P01116 with tags, fused parts or gaps isoform P01116-2 G12V): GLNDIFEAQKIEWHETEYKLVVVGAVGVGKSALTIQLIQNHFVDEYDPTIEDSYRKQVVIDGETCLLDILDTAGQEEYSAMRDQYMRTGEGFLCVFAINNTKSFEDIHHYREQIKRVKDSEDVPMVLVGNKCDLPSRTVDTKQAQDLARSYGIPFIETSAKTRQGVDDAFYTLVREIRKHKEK
Method in brief: as §1

[5] = nucleotide exchange, read-out: KRAS WT GNE IC50
[6] = nucleotide exchange, read-out: KRAS G12D GNE IC50
[7] = Homo sapiens, ASPC1, 2 h, KRAS-G12D, 2 hours
[8] = nucleotide exchange, read-out: KRAS G12V GNE IC50
[9] = Homo sapiens, ASPC1, 2 hours compound incubation
[10] = Homo sapiens, ASPC1, 2 h, 2 hours compound incubation

Sequence of KRAS-WT (P01116 with tags, fused parts or gaps isoform P01116-2): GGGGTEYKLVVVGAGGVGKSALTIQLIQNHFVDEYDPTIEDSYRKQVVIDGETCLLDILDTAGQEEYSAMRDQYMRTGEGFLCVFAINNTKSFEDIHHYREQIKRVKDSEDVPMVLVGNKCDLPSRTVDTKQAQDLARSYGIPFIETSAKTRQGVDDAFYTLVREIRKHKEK

| SMILES | IC50 [1, 5] [nM] | IC50 [2, 6] [nM] | IC50 [3, 7] [nM] | IC50 [4, 8] [nM] | IC50 ([3]; KRAS-G12D, 2 hours) [nM] | IC50 [3, 10] [nM] | IC50 [3, 9] [nM] | IC50 ([1]; KRAS WT GNE IC50, nucleotide exchange) [nM] | IC50 ([2]; KRAS G12D GNE IC50, nucleotide exchange) [nM] | IC50 ([4]; KRAS G12V GNE IC50, nucleotide exchange) [nM] |
| --- | --- | --- | --- | --- | --- | --- | --- | --- | --- | --- |
| Cc1cc2[nH]ncc2c(-c2nccc3c2sc2nc(OC[C@@]45CCCN4C[C@H](F)C5)nc(N4CCOC[C@@](C)(O)C4)c23)c1SC(F)(F)F [Ex-45, (6S)-4-(2-(((2R,7aS)-2-fluorotetrahydro-1H-pyrrolizin-7a(5H)-yl)methoxy)-8-(6-methyl-5-((trifluoromethyl)thio)-1H-indazol-4-yl)pyrido[4′,3′:4,5]thieno [2,3-d]pyrimidin-4-yl)-6-methyl-1,4-oxazepan-6-ol] | 374 | 167 | 1110 | 153 | – | – | – | – | – | – |
| C[C@@]1(O)COCCN(c2nc(OC[C@@]34CCCN3C[C@H](F)C4)nc3sc4c(-c5cccc(Cl)c5C5CC5)nncc4c23)C1 [Ex-284] | 578 | 195 | 935 | 138 | – | – | – | – | – | – |
| C#CC(F)(F)c1c(C)cc2[nH]ncc2c1-c1nccc2c1sc1nc(OC[C@@]34CCCN3C[C@H](F)C4)nc(N3CCOC[C@@](C)(O)C3)c12 [Ex-153, (6S)-4-(8-(5-(1,1-difluoroprop-2-yn-1-yl)-6-methyl-1H-indazol-4-yl)-2-(((2R,7aS)-2-fluorotetrahydro-1H-pyrrolizin-7a(5H)-yl)methoxy)pyrido[4′,3′:4,5]thieno[2,3-d]pyrimidin-4-yl)-6-methyl-1,4-oxazepan-6-ol] | 322 | 123 | – | 215 | – | – | 1640 | – | – | – |
| Cc1cc2[nH]ncc2c(-c2nccn3c2c(Cl)c2nc(OC[C@@]45CCCN4C[C@H](F)C5)nc(N4CCOC[C@@](C)(O)C4)c23)c1C(F)(F)F [Ex-299, (S)-4-(10-chloro-2-(((2R,7aS)-2-fluorotetrahydro-1H-pyrrolizin-7a(5H)-yl)methoxy)-9-(6-methyl-5-(trifluoromethyl)-1H-indazol-4-yl)pyrazino[1′,2′:1,5]pyrrolo[3,2-d]pyrimidin-4-yl)-6-methyl-1,4-oxazepan-6-ol] | 293 | 115 | 1450 | 93.1 | – | – | – | – | – | – |
| C[C@@]1(O)COCCN(c2nc(OC[C@]3(CN4[C@@H]5CC[C@H]4C[C@@H](F)C5)CC3(F)F)nc3sc4c(-c5c(C6(F)CC6)c(Cl)cc6[nH]ncc56)nccc4c23)C1 [Ex-242, (6S)-4-(8-(6-chloro-5-(1-fluorocyclopropyl)-1H-indazol-4-yl)-2-(((R)-2,2-difluoro-1-(((1R,3R,5S)-3-fluoro-8-azabicyclo[3.2.1]octan-8-yl)methyl)cyclopropyl)metho-xy)pyrido[4′,3′:4,5]thieno[2,3-d]pyrimidin-4-yl)-6-methyl-1,4-oxazepan-6-ol] | 694 | 90.7 | – | 348 | – | 1150 | – | – | – | – |
| C[C@@]1(O)COCCN(c2nc(OC[C@@]34CCCN3C[C@H](F)C4)nc3sc4c(-c5c6c(cc7[nH]ncc57)CCC6=C(F)F)nccc4c23)C1 [Ex-177, (6S)-4-(8-(5-(difluoro-methylene)-1,5,6,7-tetrahydrocyclopenta [f]indazo1-4-yl)-2-(((2R,7aS)-2-fluoro-tetrahydro-1H-pyr-rolizin-7a(5H)-yl)-methoxy)pyrido[4′,3′: 4,5]thieno[2,3-d]pyr-imidin-4-yl)-6-methyl-1,4-oxazepam-6-ol] | – | – | – | – | – | – | 248 | 77.4 | 23.1 | 61.7 |
| CC1CCc2ccc(F)c(-c3nccc4c3sc3nc(OC[C@@]56CCCN5C[C@H](F)C6)nc(N5CCOC[C@@](C)(O)C5)c34)c21 (single isomer, unassigned) [Ex-118] | 432 | 150 | 1060 | 123 | – | – | – | – | – | – |
| Cc1cc2[nH]ncc2c(-c2nc(C#N)cc3c2sc2nc(OC[C@@]45CCCN4C[C@H](F)C5)nc(N4CCOC[C@@](C)(O)C4)c23)c1C(F)(F)F [Ex-31, 2-(((2R,7aS)-2-fluorotetrahydro-1H-pyrrolizin-7a(5H)-yl)methoxy)-4-((S)-6-hydroxy-6-methyl-1,4-oxazepan-4-yl)-8-(6-methyl-5-(trifluoromethyl)-1H-indazol-4-yl)pyrido[4′,3′:4,5]thieno[2,3-d]pyrimidine-6-carbonitrile] | 571 | 305 | 1310 | 219 | – | – | – | – | – | – |
| C=CC(F)(F)c1c(C)cc2[nH]ncc2c1-c1nccc2c1sc1nc(OC[C@@]34CCCN3C[C@H](F)C4)nc(N3CCOC[C@@](C)(O)C3)c12 [Ex-152, (6S)-4-(8-(5-(1,1-difluoroallyl)-6-methyl-1H-indazol-4-yl)-2-(((2R,7aS)-2-fluorotetrahydro-1H-pyrrolizin-7a(5H)-yl)methoxy)pyrido[4′,3′:4,5]thieno[2,3-d]pyrimidin-4-yl)-6-methyl-1,4-oxazepan-6-ol] | 195 | 76.9 | – | 106 | – | 636 | – | – | – | – |

Further lines, with some results ahead:

| IC50 [1, 5] [nM] | IC50 [2, 6] [nM] | IC50 [3, 7] [nM] | IC50 [4, 8] [nM] | IC50 ([3]; KRAS-G12D, 2 hours) [nM] | IC50 [3, 10] [nM] | SMILES | IC50 [3, 9] [nM] | IC50 ([1]; KRAS WT GNE IC50, nucleotide exchange) [nM] | IC50 ([2]; KRAS G12D GNE IC50, nucleotide exchange) [nM] | IC50 ([4]; KRAS G12V GNE IC50, nucleotide exchange) [nM] |
| --- | --- | --- | --- | --- | --- | --- | --- | --- | --- | --- |
| 194 | 94.7 | 434 | 84.8 | – | – | C[C@@]1(O)COCCN(c2nc(OC[C@@]34CCCN3C[C@H](F)C4)nc3sc4c(-c5c(-c6ccco6)c(C(F)(F)F)cc6[nH]ncc56)nccc4c23)C1 [Ex-78] | – | – | – | – |
| 78.8 | 42.2 | – | 37.3 | 244 | – | CN(C)C1CC(F)(F)C2C[C@]12COc1nc(N2CCOC[C@@](C)(O)C2)c2c(n1)sc1c(-c3c(C4(F)CC4)c(Cl)cc4[nH]ncc34)nccc12 (some centres unmarked) [Ex-271] | – | – | – | – |
| 61.8 | 15 | 175 | 20.8 | – | – | C[C@@]1(O)COCCN(c2nc(OC[C@@]34CCCN3C[C@H](F)C4)nc3sc4c(-c5c(C6=CCC6)c(C(F)(F)F)cc6[nH]ncc56)nccc4c23)C1 [Ex-77, (6S)-4-(8-(5-(cyclobut-1-en-1-yl)-6-(trifluoromethyl)-1H-indazol-4-yl)-2-(((2R,7aS)-2-fluorotetrahydro-1H-pyrrolizin-7a(5H)-yl)methoxy)pyrido[4′,3′:4,5]thi-eno[2,3-d]pyrimidin-4-yl)-6-methyl-1,4-oxazepan-6-ol] | – | – | – | – |
| 55.1 | 19.7 | 128 | 30.6 | – | – | CC1=CCc2cc3[nH]ncc3c(-c3nccc4c3sc3nc(OC[C@@]56CCCN5C[C@H](F)C6)nc(N5CCOC[C@@](C)(O)C5)c34)c21 [Ex-106, (6S)-4-(2-(((2R,7aS)-2-fluorotetrahydro-1H-pyrrolizin-7a(5H)-yl)methoxy)-8-(5-methyl-1,7-dihydrocyclopenta[f]inda-zol-4-yl)pyrido[4′,3′:4,5]thieno [2,3-d]pyrimidin-4-yl)-6-methyl-1,4-oxazepan-6-ol] | – | – | – | – |
| 33.8 | 14.6 | 361 | 21.2 | – | – | C[C@@H]1CC[C@@H](COc2nc(N3CCOC[C@@](C)(O)C3)c3c(n2)sc2c(-c4c(C5CC5)c(C(F)(F)F)cc5[nH]ncc45)nccc23)N1C [Ex-86, (6S)-4-(8-(5-cyclopropyl-6-(trifluoromethyl)-1H-indazol-4-yl)-2-(((2S,5R)-1,5-dimethylpyrrolidin-2-yl)methoxy)pyrido[4′,3′:4,5]thi-eno[2,3-d]pyrimidin-4-yl)-6-methyl-1,4-oxazepan-6-ol] | – | – | – | – |
| 166 | 72.4 | 934 | 157 | – | – | Cn1ccc2cc3[nH]ncc3c(-c3nccc4c3sc3nc(OC[C@@]56CCCN5C[C@H](F)C6)nc(N5CCOC[C@@](C)(O)C5)c34)c21 [Ex-46] | – | – | – | – |
| 18.5 | 6.56 | – | 21.9 | – | 175 | C=C1CN2C[C@@H](OC)C[C@@]2(COc2nc(N3CCOC[C@@](C)(O)C3)c3c(n2)sc2c(-c4c(C5CC5)c(Cl)cc5[nH]ncc45)nccc23)C1 [Ex-227, (6S)-4-(8-(6-chloro-5-cyclopropyl-1H-indazol-4-yl)-2-(((25,7aR)-2-meth-oxy-6-methylene-tetrahydro-1H-pyrrolizin-7a(5H)-yl)methoxy)pyrido [4′,3′:4,5]thieno[2,3-d]pyrimidin-4-yl)-6-methyl-1,4-oxaze-pan-6-ol] | – | – | – | – |
| 164 | 85.6 | 1110 | 86.2 | – | – | CN1CCC[C@@H]1COc1nc(N2CCOC[C@@](C)(O)C2)c2c(n1)sc1c(-c3c(C4CC4)c(C(F)(F)F)cc4[nH]ncc34)nccc12 [Ex-81, (6S)-4-(8-(5-cyclopropyl-6-(trifluoromethyl)-1H-indazol-4-yl)-2-(((R)-1-methylpyrrolidin-2-yl)methoxy)pyrido[4′,3′:4,5]thi-eno[2,3-d]pyrimidin-4-yl)-6-methyl-1,4-oxazepan-6-ol] | – | – | – | – |
